# Test results published in PubChem BioAssay AID248 (DTP/NCI, 2004).
# Several values for one entry are separate records, joined by “and”; a condition that tells them apart may be missing. Equal entries are not always repeated. Inconclusive results and toxic doses are left out.
# Tested on: L1210 leukemia ip in BDF1 mice, survival T/C
# Assay: NCI In Vivo Anticancer Drug Screen. Data for tumor model L1210 Leukemia (intraperitoneal) in B6D2F1 (BDF1) mice
# Details: endpoint: mean survival time, higher = longer survival
# Method in brief: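 Each compound was tested against a transplantable tumor grown in mice. The endpoint was survival, with treated animals benchmarked against vehicle controls as a simple ratio.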
# [1] = dose: 100.0 mg/kg/injection, schedule: Q01DX001 (ip), vehicle: saline
# [2] = dose: 200.0 mg/kg/injection, schedule: Q01DX001 (ip), vehicle: saline
# [3] = dose: 100.0 mg/kg/injection, schedule: Q01DX009 (ip), vehicle: Klucel (hydroxypropylcellulose) (HPC)
# [4] = dose: 200.0 mg/kg/injection, schedule: Q01DX009 (ip), vehicle: Klucel (hydroxypropylcellulose) (HPC)
# [5] = dose: 400.0 mg/kg/injection, schedule: Q01DX009 (ip), vehicle: Klucel (hydroxypropylcellulose) (HPC)
# [6] = dose: 50.0 mg/kg/injection, schedule: Q01DX009 (ip), vehicle: saline
# [7] = dose: 100.0 mg/kg/injection, schedule: Q04DX003 (ip), vehicle: saline
# [8] = dose: 200.0 mg/kg/injection, schedule: Q04DX003 (ip), vehicle: saline
# [9] = dose: 25.0 mg/kg/injection, schedule: Q01DX009 (ip), vehicle: saline
# [10] = dose: 100.0 mg/kg/injection, schedule: Q04DX003 (ip), vehicle: Klucel (hydroxypropylcellulose) (HPC)
# [11] = dose: 200.0 mg/kg/injection, schedule: Q04DX003 (ip), vehicle: Klucel (hydroxypropylcellulose) (HPC)
# [12] = dose: 400.0 mg/kg/injection, schedule: Q04DX003 (ip), vehicle: Klucel (hydroxypropylcellulose) (HPC)
# [13] = dose: 50.0 mg/kg/injection, schedule: Q04DX003 (ip), vehicle: Klucel (hydroxypropylcellulose) (HPC)
smiles,measurement,setting,value
NC(Cc1ccccc1)C(=O)NCCCCCCCCCCNC(=O)C(N)Cc1ccccc1 (centres undefined),T/C,"dose: 50.0 mg/kg/injection, schedule: Q01DX001 (ip), vehicle: saline",98 % of control
same,T/C,[1],104 % of control
same,T/C,[2],103 % of control
CSc1ccc(NC(=O)Oc2cc(C)c(Cl)cc2C(C)C)cc1,T/C,[3],94 % of control
same,T/C,[4],96 % of control
same,T/C,[5],89 % of control
Cc1ccc(-c2ccccc2)n1-c1ccccc1O,T/C,"dose: 50.0 mg/kg/injection, schedule: Q01DX001 (ip), vehicle: other",104 % of control
same,T/C,"dose: 100.0 mg/kg/injection, schedule: Q01DX001 (ip), vehicle: other",102 % of control
same,T/C,"dose: 200.0 mg/kg/injection, schedule: Q01DX001 (ip), vehicle: other",96 % of control
same,T/C,"dose: 400.0 mg/kg/injection, schedule: Q01DX001 (ip), vehicle: other",98 % of control
C=CC1COC=C2CN3CCc4cc(OC)c(O)cc4C3CC21 (centres undefined),T/C,[6],100 % of control
same,T/C,"dose: 100.0 mg/kg/injection, schedule: Q01DX009 (ip), vehicle: saline",104 % of control
same,T/C,[7],100 % of control
same,T/C,"dose: 200.0 mg/kg/injection, schedule: Q01DX009 (ip), vehicle: saline",98 % of control
same,T/C,[8],101 % of control
same,T/C,"dose: 400.0 mg/kg/injection, schedule: Q04DX003 (ip), vehicle: saline",97 % of control
CCOc1cc(F)cc([N+](=O)[O-])c1,T/C,"dose: 100.0 mg/kg/injection, schedule: Q01DX001 (ip), vehicle: carboxymethylcellulose (CMC)",97 % of control
same,T/C,"dose: 200.0 mg/kg/injection, schedule: Q01DX001 (ip), vehicle: carboxymethylcellulose (CMC)",108 % of control
same,T/C,"dose: 400.0 mg/kg/injection, schedule: Q01DX001 (ip), vehicle: carboxymethylcellulose (CMC)",89 % of control
[Br][V]([Br])[Br],T/C,"dose: 12.0 mg/kg/injection, schedule: Q01DX009 (ip), vehicle: saline",97 % of control
same,T/C,"dose: 25.0 mg/kg/injection, schedule: Q01DX009 (ip), vehicle: saline sonified",92 % of control
same,T/C,[9],93 % of control
same,T/C,[6],102 % of control
same,T/C,[7],102 % of control
COC(=O)c1ccccc1NC(=O)Nc1ccccc1C(F)(F)F,T/C,"dose: 100.0 mg/kg/injection, schedule: Q01DX009 (ip), vehicle: saline with Tween-80",89 % of control
same,T/C,"dose: 200.0 mg/kg/injection, schedule: Q01DX009 (ip), vehicle: saline with Tween-80",89 % of control
same,T/C,"dose: 400.0 mg/kg/injection, schedule: Q01DX009 (ip), vehicle: saline with Tween-80",86 % of control
O=C(CCl)NCC(NC(=O)CCl)C(=O)O (centres undefined),T/C,"dose: 100.0 mg/kg/injection, schedule: Q04DX002 (ip), vehicle: saline",115 % of control
same,T/C,"dose: 200.0 mg/kg/injection, schedule: Q04DX002 (ip), vehicle: saline",105 % of control
same,T/C,"dose: 400.0 mg/kg/injection, schedule: Q04DX002 (ip), vehicle: saline",112 % of control
CCN(CC)C(=O)Nc1ccc(C(=O)O)c(O)c1,T/C,[10],95 % of control
same,T/C,[11],90 % of control
same,T/C,[12],90 % of control
CCCCC(=O)NC1=CC(=O)c2ccccc2C1=O,T/C,"dose: 75.0 mg/kg/injection, schedule: Q01DX001 (ip), vehicle: saline",95 % of control
same,T/C,"dose: 150.0 mg/kg/injection, schedule: Q01DX001 (ip), vehicle: saline",91 % of control
C/C(=N\N=C(/C)c1ccc([N+](=O)[O-])cc1)c1ccc([N+](=O)[O-])cc1,T/C,"dose: 100.0 mg/kg/injection, schedule: Q04DX002 (ip), vehicle: saline with Tween-80",98 % of control
same,T/C,"dose: 200.0 mg/kg/injection, schedule: Q04DX002 (ip), vehicle: saline with Tween-80",103 % of control
same,T/C,"dose: 400.0 mg/kg/injection, schedule: Q04DX002 (ip), vehicle: saline with Tween-80",103 % of control
S=c1nc[nH]c2c1ncn2CN1CCCCC1,T/C,"dose: 25.0 mg/kg/injection, schedule: Q01DX009 (ip), vehicle: other",151 % of control
same,T/C,"dose: 25.0 mg/kg/injection, schedule: Q01DX Z (ip), vehicle: carboxymethylcellulose (CMC)",109 % of control
same,T/C,"dose: 50.0 mg/kg/injection, schedule: Q01DX009 (ip), vehicle: other",192 % of control
same,T/C,"dose: 50.0 mg/kg/injection, schedule: Q01DX Z (ip), vehicle: carboxymethylcellulose (CMC)",102 % of control
same,T/C,"dose: 100.0 mg/kg/injection, schedule: Q01DX009 (ip), vehicle: other",116 % of control
same,T/C,"dose: 100.0 mg/kg/injection, schedule: Q01DX Z (ip), vehicle: carboxymethylcellulose (CMC)",120 % of control
same,T/C,"dose: 200.0 mg/kg/injection, schedule: Q01DX009 (ip), vehicle: other",102 % of control
Nc1nc(Cc2cccc3ccccc23)nc(Cc2cccc3ccccc23)n1,T/C,[10],87 % of control
same,T/C,[11],92 % of control
Cc1ccc(C(C)C)c(OC(=O)Nc2ccc(Cl)cc2)c1,T/C,"dose: 100.0 mg/kg/injection, schedule: Q01DX001 (ip), vehicle: Klucel (hydroxypropylcellulose) (HPC)",95 % of control
same,T/C,[3],96 % of control and 103 % of control
same,T/C,"dose: 100.0 mg/kg/injection, schedule: Q04DX002 (ip), vehicle: Klucel (hydroxypropylcellulose) (HPC)",98 % of control and 102 % of control
same,T/C,[10],100 % of control and 120 % of control
same,T/C,"dose: 200.0 mg/kg/injection, schedule: Q01DX001 (ip), vehicle: Klucel (hydroxypropylcellulose) (HPC)",88 % of control
same,T/C,[4],98 % of control and 100 % of control
same,T/C,"dose: 200.0 mg/kg/injection, schedule: Q04DX002 (ip), vehicle: Klucel (hydroxypropylcellulose) (HPC)",102 % of control
same,T/C,[11],104 % of control and 124 % of control
same,T/C,"dose: 400.0 mg/kg/injection, schedule: Q01DX001 (ip), vehicle: Klucel (hydroxypropylcellulose) (HPC)",88 % of control
same,T/C,[5],96 % of control and 91 % of control
same,T/C,"dose: 400.0 mg/kg/injection, schedule: Q04DX002 (ip), vehicle: Klucel (hydroxypropylcellulose) (HPC)",94 % of control and 98 % of control
same,T/C,[12],96 % of control
C1=CC2CC3(OCCO3)C2C1 (centres undefined),T/C,"dose: 100.0 mg/kg/injection, schedule: Q04DX003 (ip), vehicle: saline with Tween-80",95 % of control
same,T/C,"dose: 200.0 mg/kg/injection, schedule: Q04DX003 (ip), vehicle: saline with Tween-80",92 % of control
same,T/C,"dose: 400.0 mg/kg/injection, schedule: Q04DX003 (ip), vehicle: saline with Tween-80",92 % of control
O=C(O)CCSSc1ccc([N+](=O)[O-])cc1[N+](=O)[O-],T/C,"dose: 12.5 mg/kg/injection, schedule: Q01DX009 (ip), vehicle: Klucel (hydroxypropylcellulose) (HPC)",96 % of control
same,T/C,"dose: 12.5 mg/kg/injection, schedule: Q04DX003 (ip), vehicle: Klucel (hydroxypropylcellulose) (HPC)",98 % of control
same,T/C,"dose: 25.0 mg/kg/injection, schedule: Q01DX009 (ip), vehicle: Klucel (hydroxypropylcellulose) (HPC)",99 % of control
same,T/C,"dose: 25.0 mg/kg/injection, schedule: Q04DX003 (ip), vehicle: Klucel (hydroxypropylcellulose) (HPC)",107 % of control
same,T/C,[13],105 % of control
O=C(O)c1c[nH]c(=O)c([N+](=O)[O-])c1,T/C,[13],97 % of control
same,T/C,[10],91 % of control
same,T/C,[11],92 % of control
Cc1ccc(C(C)C)c(OC(=O)Nc2ccc(S(=O)(=O)N(C)C)cc2)c1,T/C,[1],103 % of control
same,T/C,[2],100 % of control
same,T/C,"dose: 400.0 mg/kg/injection, schedule: Q01DX001 (ip), vehicle: saline",101 % of control
CC/C(=N/N(C)C)c1ccccc1,T/C,[7],96 % of control
same,T/C,[8],93 % of control
Cn1c(=O)cc[nH]c1=O,T/C,"dose: 100.0 mg/kg/injection, schedule: Q01DX001 (ip), vehicle: saline with Tween-80",95 % of control
same,T/C,"dose: 200.0 mg/kg/injection, schedule: Q01DX001 (ip), vehicle: saline with Tween-80",98 % of control
same,T/C,"dose: 400.0 mg/kg/injection, schedule: Q01DX001 (ip), vehicle: saline with Tween-80",106 % of control
CN(C)CCC1(c2ccccc2)C=Cc2ccccc21 (centres undefined),T/C,"dose: 3.12 mg/kg/injection, schedule: Q01DX009 (ip), vehicle: saline",93 % of control
same,T/C,"dose: 6.25 mg/kg/injection, schedule: Q01DX009 (ip), vehicle: saline",97 % of control
same,T/C,"dose: 12.5 mg/kg/injection, schedule: Q01DX009 (ip), vehicle: saline",101 % of control
same,T/C,[9],100 % of control
same,T/C,[6],95 % of control
S=c1sc2ccccc2n1CN1CCCCC1,T/C,[3],95 % of control
same,T/C,[10],92 % of control
same,T/C,[4],103 % of control
same,T/C,[11],97 % of control
same,T/C,[5],105 % of control
same,T/C,[12],96 % of control
